# According to patent US20110166038A1, “SCREENING METHODS FOR HEAT-SHOCK RESPONSE MODULATORS” (SCREENING METHODS FOR HEAT-SHOCK RESPONSE MODULATIORS, priority 2008, published 2011):
# Legend:
# Assay type in all cases: cell-based
# [1] = tested on: HSP70; experiment: HSP70 inhibitor assay, heat shock 43° C.; conditions: HeLa, 1 μM triptolide or 10 μM CYT compound, 43° C. 1-4 hours, recovery 0-7 hours
# Protocol: Experiment 2: HeLa cells were treated with 1 μM of Triptolide and 10 μM of CYT975 (▪), CYT1563 (▴) and CYT1590 ([…]) 30 minutes before heat shock. The cells subsequently underwent heat shock at 43° C. for 1 hour with 0, 5 or 7 hours recovery time with total HSP70 nuclear and cell intensity as the threshold.
# Experiment 3: HeLa cells were treated with 1 μM of Triptolide and 10 μM of CYT975 (▪), CYT1563 (▴) and CYT1590 ([…]) 30 minutes before heat shock. The cells subsequently underwent heat shock at 43° C. for 2 hours with 0, 4 or 6 hours recovery time with total HSP70 nuclear and cell intensity as the threshold.
# Experiment 4: HeLa cells were treated with 1 μM of Triptolide and 10 μM of CYT975 (▪), CYT1563 (▴) and CYT1590 ([…]) 30 minutes before heat shock. The cells subsequently underwent heat shock at 43° C. for 3 hours with 0, 3 or 5 hours recovery time with total HSP70 nuclear and cell intensity as the threshold. […]
# Experiment 3: HSP70 expression induced by Triptolide (▪), CYT1563 (▴) and DMSO (0, control) was evaluated in a 96-well plate format (See Example 4) following heat shock at 43° C. for 2 hours with 4 hours recovery time. […]
# Experiment 4: HSP70 expression induced by Triptolide (▪), CYT1563 (▴) and DMSO (♦, control) was evaluated in a 96-well plate format (See Example 4) following heat shock at 43° C. for 4 hours with 4 hours recovery time. […]
# [2] = tested on: HSF1; experiment: HSF1 granule inhibitor assay, heat shock 43° C.; conditions: HeLa, 10 nM-10 μM, 43° C. 1-4 hours, threshold 5 granules/nucleus
# Protocol: Experiment 1: HeLa cells were treated with four different […] (10 nM, 100 nM, 1 μM and 10 μM) of triptolide and subsequently underwent heat shock at 43° C. for 1 to 4 hours. […] HSF1 granule count was measured with 5 granules/nucleus used as the threshold. Similar assay conditions were used to test the effect of various compounds selected using MaCRA methods as described herein.
# Experiment 1: HSF1 granule formation induced by Triptolide (▪), CYT1563 (▴) and DMSO (♦, control) was evaluated in a 96-well plate format (See Example 4) following heat shock at 43° C. for 2 hours with no recovery time. FIG. 26A illustrates the HSF1 inhibition.
# Experiment 2: HSF1 granule formation induced by Triptolide (▪), CYT1563 (▴) and DMSO (♦, control) was evaluated in a 96-well plate format (See Example 4) following heat shock at 43° C. for 4 hours with 4 hours recovery time. FIG. 26B illustrates the HSF1 inhibition.
# HeLa cells were treated with DMSO (♦) or CYT 1563 (10 μM) (▪) and subsequently heat shocked at 43° C. for 2 h with no recovery time using HSF1 granule count in a 384-well plate format (See Example 10). Results including the Z′ values and Signal/Background (S/B) ratio are illustrated in FIG. 27.
# [3] = tested on: SH-SY5Y cells; experiment: Rotenone model, MTS readout; conditions: 100 nM for 24 hours
# From the text: This experiment tests the hits from the MaCRA HSF1 activator screening in a secondary rotenone assay for cytoprotective effects of test compounds on SHSY5Y cells. The rotenone model of Parkinson's disease is an in vitro system for study of protein aggregation induced cytotoxicity. […] See Greenamyre et al., Parkinsonism Relat. Disord., Suppl 2:S59-S64 (2003). Therefore, this in vitro system may be adopted to evaluate cytoprotective effects of the HSF1/HSP70 MaCRA screening hits as carried out essentially as described in Sherer et al., J. Neuroscience, 23(34):10756-10764, 2003. […] In summary, the small molecule HSF1/HSP70 amplifier identified from our HSF1/HSP70 screening can rescue cells from two different stress conditions with cytoprotective benefits, possibly through the mechanism of HSF1/HSP70 amplification.
# [4] = tested on: HSF1; experiment: MaCRA HCS HSF1 granule assay, heat shock 41° C.
# Protocol: (§1) This experiment was directed to developing of a HSF1/HSP70 high-content screening (HCS) assay for screening HSF1 activators. HeLa cells were pretreated with a compound (celastrol) one hour before heat shock at 41° C. for two hours. The dilution in Dulbecco's Modified Eagle's Medium (DMEM) was 200-fold resulting in a final concentration of 30 μM for screening. A custom made aluminum plate was designed for better heat transduction and to achieve a constant temperature with minimal variability for the 96-well plate. The aluminum plate was placed inside a 41° C. incubator for one day prior to the experiment.
# Immunocytochemical staining for HSF1 and HSP70 in HeLa cells was performed as in Zhang et al., Biomol Screen., 13(6):538-543, 2008. Image acquisition was performed using an INcell 1000 (GE Healthcare, Piscataway, N.J.) integrated with a Twister II (Caliper Life Sciences, Hopkinton, Mass.) for automated plate delivery. Image analysis was carried out using a Multi Target Analysis module from Workstation 3.6. Algorithms for HSF1/HSP70 granule count, granule area and nuclear intensity CV were established according to assay conditions and manufacture instructions. EC50 values and curve fitting were performed using a Prism 4.0 (GraphPad Software, San Diego, Calif.) with nonlinear regression analysis.
# A Multi Target Analysis Module (MTA) module from Workstation software (GE Healthcare) provides a high-speed measurement of nuclear granules including granule count, granule area, granule intensity and nuclear intensity CV (CV of pixel intensity in the nucleus). FIGS. 2A and 2B provide a quantification of HSF1 variables via granule count and nuclear intensity CV. FIGS. 2C and 2D adopted granule count and granule area for the quantification of HSP70 granules.
# By comparison, DMSO-treated cells contain, on average, 2.46±0.22 granules. To achieve a relatively low background, HeLa cells that contained more than 5 HSF1 granules were designated as “HSF1 granule positive cells”. The thresholds for HSF1 nuclear intensity CV, HSP70 granule count and HSP70 granule area were also chosen with gating values equivalent to the average of DMSO treated samples plus 2 or more standard deviations (FIG. 2B-2D).
# Experiment 3: HeLa cells were seeded in Costar 96-well assay plates (Costar 3904) at a density of 8,000 cells/well approximately 16 to 24 hours before compound treatment. Subsequently, the cells were treated with DMSO. […] Heat shock was carried out at 41° C. for 2 hours with no recovery time. Immediately following heat shock, 50 μL of 16% para-formaldehyde was mixed with the culture medium (total volume at 150 μL) to a final concentration of 4%. The plates were incubated at room temperature for 30 minutes before washing with PBS. […]
# [5] = tested on: HSP70; experiment: MaCRA HCS HSP70 granule assay, heat shock 41° C.; conditions: Homo sapiens, HeLa, read-out: EC50 of HSP granule area
# Protocol: as §1
# Immunocytochemical staining for HSF1 and HSP70 in HeLa cells was performed as in Zhang et al., Biomol Screen., 13(6):538-543, 2008. Image acquisition was performed using an INcell 1000 (GE Healthcare, Piscataway, N.J.) integrated with a Twister II (Caliper Life Sciences, Hopkinton, Mass.) for automated plate delivery. […]
# A Multi Target Analysis Module (MTA) module from Workstation software (GE Healthcare) provides a high-speed measurement of nuclear granules including granule count, granule area, granule intensity and nuclear intensity CV (CV of pixel intensity in the nucleus). FIGS. 2A and 2B provide a quantification of HSF1 variables via granule count and nuclear intensity CV. FIGS. 2C and 2D adopted granule count and granule area for the quantification of HSP70 granules. […]
compound,measurement,setting,value
CC(C)[C@]12O[C@H]1[C@@H]1O[C@]13[C@]1(O[C@H]1C[C@H]1C4=C(CC[C@@]13C)C(=O)OC4)[C@@H]2O [triptolide],HSP70 expression after heat shock,[1],reduction of HSP70 expression
same,inhibition of HSF1 granule formation,[2],dose dependent inhibition of HSF1 granule formation
C=C(C)[C@H]1Cc2c(ccc3c2O[C@@H]2COc4cc(OC)c(OC)cc4[C@@H]2C3=O)O1 [rotenone],SH-SY5Y cells killed,[3],more than 42%
CC1=C(O)C(=O)C=C2C1=CC=C1[C@@]2(C)CC[C@@]2(C)[C@@H]3C[C@](C)(C(=O)O)CC[C@]3(C)CC[C@]12C [celastrol],HSF1 granule positive cells,"[4]; 96-well, 2 μM, 41° C. 2 h, HSF1 granule count",59.36%
same,average HSF1 stress granules per nucleus,"[4]; HeLa, 2 μM, 41° C. for two hours",5.34±0.72 granules per nucleus
same,"HSF1 stress granules per nucleus, positive control at 43° C.","[4]; HeLa, heat shock 43° C.",about 6.56
same,EC50,"[4]; Homo sapiens, HeLa, read-out: EC50 of HSF1 intensity CV",1320 nM
same,EC50,[5],650 nM
